According to patent publication US6103751A, “Carotene analogs of porphyrins, chlorins and bacteriochlorins as therapeutic and diagnostic agents” (Health Research, Inc., priority 1998, dated 2000):
Values belong to the compound of their own block, whether it stands above or below them.

Key:
[1] = Partition Coefficient (log P); format: physicochemical
[2] = Fluorescence spectroscopy in dichloromethane; format: physicochemical
Description: Fluorescence Spectroscopy:
The fluorescence spectra of HPPH 2, purpurin-imide 4 and their corresponding carotene conjugates 3 and 6 were measured in dichloromethane. In the case of HPPH and its carotenoid analog, excitation at 660 nm gave strong emission at 670 nm. Similarly, purpurin imide and its carotenoid analog on excitation at 705 nm produced emission at 715 nm. Due to their strong fluorescence, and higher uptake in tumors, these compounds show great potential for use as diagnostic agents for malignant and non-malignant tumors.

RIF tumor = test: In vivo photosensitizing activity (tumor response after laser illumination); set-up: species or system C3H mice
Description: Preliminary In Vivo Activity:
RIF rumors were implanted subcutaneously into the axilla of 5-7 week old female C3H mice. When tumors grew to about 5 mm diameter, mice were injected with photosensitizers at various doses. The mice (6 mice/group) were restrained in aluminum holders and each tumor illuminated with 135 J/cm^2 light from a laser tuned at the longest wavelength absorption maximum of the photosensitizers. The percentage of short-term control was recorded daily.
*Six mice/group (RIF tumor). 1.0 μmol/kg, 705 nm, 135 J/cm^2 (24 h
*Six mice/group (RIF tumor). 135 J/cm^2

[3] = Singlet oxygen production in oxygen saturated toluene, singlet oxygen phosphorescence at 1270 nm; format: physicochemical; details: for singlet oxygen production: phosphorescence at 1270 nm
Description: The carboxylic acid functionality was first activated by preparing carbodiimide analog (in situ) before condensing with amino carotene. The structure of the conjugate was confirmed by NMR and mass spectrometry. The singlet oxygen production by HPPH and its carotene conjugate was measured in oxygen saturated toluene solutions by monitoring the singlet oxygen phosphorescence at 1270 nm. […] Thus, a complete photoprotection was achieved.

[4] = system: radiation induced fibrosarcoma (RIF) tumor; test: Tumor uptake by in vivo reflection spectroscopy; set-up: species or system C3H mice; details: 5 micro mole/Kg; tumor vs skin fold; 3 h and 24 h post injection
Description: Determination of Tumor Uptake by In Vivo Reflection Spectroscopy:
The tumor uptake of the parent photosensitizer 2 (HPPH), FIG. 1, and purpurin with a fused imide ring 4, FIG. 2, were compared to the corresponding carotene conjugate 3 and 6 by in vivo reflection spectroscopy.
For these experiments, C3H mice with an axillary radiation induced fibrosarcoma (RIF) tumor were injected with the drug in an amount of 5 micro mole/Kg of body weight and the in vivo absorption specta were taken at various time intervals. FIGS. 3 and 4 respectively show the uptake of HPPH 2 and purpurin-imide 4 at 24 h post injection. FIGS. 5 and 6 show the uptake of the HPPH-carotene conjugate at 3 h and 24 h post injection.

Compound: CCCN1C(=O)c2c3nc(cc4[nH]c(cc5nc(cc6[nH]c2c(c6C)C1=O)C(CC)=C5C)c(C(C)OC)c4C)[C@@H](C)[C@@H]3CCC(=O)OC (stereo partly shown) [Methyl Propyl]
logP [1]: 6.22

Compound: CCCCCCN1C(=O)c2c3nc(cc4[nH]c(cc5nc(cc6[nH]c2c(c6C)C1=O)C(CC)=C5C)c(C(C)OC)c4C)[C@@H](C)[C@@H]3CCC(=O)OC (stereo partly shown) [Methyl Hexyl]
logP [1]: 7.72

Compound: CCCCCCCOC(C)c1c(C)c2cc3nc(c4c5[nH]c(cc6nc(cc1[nH]2)C(C)=C6CC)c(C)c5C(=O)N(CCCCCC)C4=O)[C@@H](CCC(=O)OC)[C@@H]3C (stereo partly shown) [Purpurin-imide (4), heptyl ether analog of N-hexyl purpurin imide]
fluorescence emission wavelength ([2]; excitation at 705 nm): 715 nm
% TUMOR RESPONSE day 7 (RIF tumor; 1.0 μmol/kg, 705 nm, 24 between inj. & treatment, 135 J/cm^2, day 7, Table 2): 100%
% TUMOR RESPONSE day 21 (RIF tumor; 1.0 μmol/kg, 705 nm, 24 between inj. & treatment, 135 J/cm^2, day 21, Table 2): 100%
% TUMOR RESPONSE day 30 (RIF tumor; 1.0 μmol/kg, 705 nm, 24 between inj. & treatment, 135 J/cm^2, day 30, Table 2): 100%
% TUMOR RESPONSE day 90 (RIF tumor; 1.0 μmol/kg, 705 nm, 24 between inj. & treatment, 135 J/cm^2, day 90, Table 2): 83%
Tumor Response days 1-2 (RIF tumor; 1.0 μmol/kg, 705 nm, 135 J/cm^2, 24 h post injection, Table 1): 100%
mice tumor free on day 90 (RIF tumor; 1.0 μmol/kg, 705 nm, 135 J/cm^2, day 90): 5/6
in vivo activity among the compounds tested (RIF tumor; dose of 1.0 μmol/kg): most effective

Compound: CCCCCCCOC(C)c1c(C)c2cc3nc(c4c5[nH]c(cc6nc(cc1[nH]2)C(C)=C6CC)c(C)c5C(=O)N(CCCCCC)C4=O)[C@@H](CCC(=O)Nc1ccc(/C=C/C(C)=C/C=C/C(C)=C/C=C/C=C(C)/C=C/C=C(C)/C=C/C2=C(C)CCCC2(C)C)cc1)[C@@H]3C (stereo partly shown) [Purpurin-imide-carotene (6)]
fluorescence emission wavelength ([2]; excitation at 705 nm): 715 nm
TUMOR RESPONSE (all days) (RIF tumor; 1.0 μmol/kg, 705 nm, 24 between inj. & treatment, 135 J/cm^2, Table 2): NO RESPONSE

Compound: CCCOC(C)c1c(C)c2cc3nc(c4c5[nH]c(cc6nc(cc1[nH]2)C(C)=C6CC)c(C)c5C(=O)N(CCC)C4=O)[C@@H](CCC(=O)OC)[C@@H]3C (stereo partly shown) [Propyl Propyl]
logP [1]: 7.22

Compound: CCCCCCN1C(=O)c2c3nc(cc4[nH]c(cc5nc(cc6[nH]c2c(c6C)C1=O)C(CC)=C5C)c(C(C)OCCC)c4C)[C@@H](C)[C@@H]3CCC(=O)OC (stereo partly shown) [Propyl Hexyl]
logP [1]: 8.72

fluorescence yield (Φf) [3]: 0.48
singlet oxygen yield (ΦΔ) ([3]; oxygen saturated toluene): 0.45
singlet oxygen production ([3]; oxygen saturated toluene): Ample production
fluorescence emission wavelength ([2]; excitation at 660 nm): 670 nm
Compound: CCCCCCOC(C)c1c(C)c2cc3nc(c4c5[nH]c(cc6nc(cc1[nH]2)C(C)=C6CC)c(C)c5C(=O)C4)[C@@H](CCC(=O)O)[C@@H]3C (stereo partly shown) [HPPH (2), Hexyl ether analog of pyropheophorbide-a, reference compound]
% TUMOR RESPONSE day 1-2 (RIF tumor; 0.47 μmol/kg, 665 nm, 24 between inj. & treatment, 135 J/cm^2, day 1-2, Table 2): 100%
% TUMOR RESPONSE day 7 (RIF tumor; 0.47 μmol/kg, 665 nm, 24 between inj. & treatment, 135 J/cm^2, day 7, Table 2): 100%
% TUMOR RESPONSE day 30 (RIF tumor; 0.47 μmol/kg, 665 nm, 24 between inj. & treatment, 135 J/cm^2, day 30, Table 2): 50%
% TUMOR RESPONSE day 90 (RIF tumor; 0.47 μmol/kg, 665 nm, 24 between inj. & treatment, 135 J/cm^2, day 90, Table 2): 50%
% TUMOR RESPONSE day 21 (RIF tumor; 0.47 umol/kg, 504 h): 80%

Compound: CCCCCCOC(C)c1c(C)c2cc3nc(c4c5[nH]c(cc6nc(cc1[nH]2)C(C)=C6CC)c(C)c5C(=O)C4)[C@@H](CCC(=O)Nc1ccc(/C=C/C(C)=C/C=C/C(C)=C/C=C/C=C(C)/C=C/C=C(C)/C=C/C2=C(C)CCCC2(C)C)cc1)[C@@H]3C (stereo partly shown) [HPPH-carotene (3)]
tumor uptake compared to parent compound [4]: significant uptake of the drug in the tumor vs the skin fold
singlet oxygen production ([3]; oxygen saturated toluene): did not produce singlet oxygen
fluorescence emission wavelength ([2]; excitation at 660 nm): 670 nm
TUMOR RESPONSE (all days) (RIF tumor; 0.47 μmol/kg, 665 nm, 24 between inj. & treatment, 135 J/cm^2, Table 2): NO RESPONSE

Compound: CCCCCCOC(C)c1c(C)c2cc3nc(c4c5[nH]c(cc6nc(cc1[nH]2)C(C)=C6CC)c(C)c5C(=O)N(CCC)C4=O)[C@@H](CCC(=O)OC)[C@@H]3C (stereo partly shown) [Hexyl Propyl]
logP [1]: 8.72
Tumor Response day 7 (RIF tumor; 0.5 μmol, 705 nm, 135 J/cm^2, 24 h post injection, day 7, Table 1): 66%
Tumor Response day 14 (RIF tumor; 0.5 μmol, 705 nm, 135 J/cm^2, 24 h post injection, day 14, Table 1): 33%
Tumor Response day 21 (RIF tumor; 0.5 μmol, 705 nm, 135 J/cm^2, 24 h post injection, day 21, Table 1): 17%
Tumor Response day 30 (RIF tumor; 0.5 μmol, 705 nm, 135 J/cm^2, 24 h post injection, day 30, Table 1): 17%
Tumor Response day 90 (RIF tumor; 0.5 μmol, 705 nm, 135 J/cm^2, 24 h post injection, day 90, Table 1): 17%
Tumor Response days 1-2 (RIF tumor; 0.5 μmol, 705 nm, 135 J/cm^2, 24 h post injection, Table 1): 100%
